Data on two molecules can be found in article PMC4775402 (Pharmacological research, 2016).

SMILES strings stand for the structures. Counter-ions that a name gives are not always drawn.

One assay addresses WT C3AR1 (Homo sapiens, UniProt Q16581). Kind of assay: Label-free DMR agonist response, HEK293T expressing WT C3AR1. In kind it is cell-based.
A further assay has as its target ΔPDZ C3AR1 (Homo sapiens, UniProt Q16581). The experiment in a line: Label-free DMR agonist response, HEK293T expressing ΔPDZ C3AR1. In kind it is cell-based.
A further assay addresses ΔPDZ HRH3 (Homo sapiens, UniProt Q9Y5N1). The following applies: HEK293T.
The target of the next assay is WT HRH3 (Homo sapiens, UniProt Q9Y5N1). The following applies: HEK293T.
WT HRH3, sequence (Q9Y5N1 1-453 isoform Q9Y5N1-2): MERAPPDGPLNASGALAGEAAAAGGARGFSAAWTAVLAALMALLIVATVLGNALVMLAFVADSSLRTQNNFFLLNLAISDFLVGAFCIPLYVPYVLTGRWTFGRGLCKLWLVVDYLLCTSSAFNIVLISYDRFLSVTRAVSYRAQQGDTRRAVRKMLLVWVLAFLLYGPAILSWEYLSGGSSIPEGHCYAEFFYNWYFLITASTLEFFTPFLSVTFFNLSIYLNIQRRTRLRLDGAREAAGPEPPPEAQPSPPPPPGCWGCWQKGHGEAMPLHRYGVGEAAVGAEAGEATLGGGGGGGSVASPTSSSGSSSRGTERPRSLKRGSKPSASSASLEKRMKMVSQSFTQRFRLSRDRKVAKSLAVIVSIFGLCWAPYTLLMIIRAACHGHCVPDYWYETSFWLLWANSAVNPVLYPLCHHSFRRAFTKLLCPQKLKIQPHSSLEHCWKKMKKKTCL

ΔPDZ C3AR1, sequence (Q16581 1-478 limits assumed, stated change not applied): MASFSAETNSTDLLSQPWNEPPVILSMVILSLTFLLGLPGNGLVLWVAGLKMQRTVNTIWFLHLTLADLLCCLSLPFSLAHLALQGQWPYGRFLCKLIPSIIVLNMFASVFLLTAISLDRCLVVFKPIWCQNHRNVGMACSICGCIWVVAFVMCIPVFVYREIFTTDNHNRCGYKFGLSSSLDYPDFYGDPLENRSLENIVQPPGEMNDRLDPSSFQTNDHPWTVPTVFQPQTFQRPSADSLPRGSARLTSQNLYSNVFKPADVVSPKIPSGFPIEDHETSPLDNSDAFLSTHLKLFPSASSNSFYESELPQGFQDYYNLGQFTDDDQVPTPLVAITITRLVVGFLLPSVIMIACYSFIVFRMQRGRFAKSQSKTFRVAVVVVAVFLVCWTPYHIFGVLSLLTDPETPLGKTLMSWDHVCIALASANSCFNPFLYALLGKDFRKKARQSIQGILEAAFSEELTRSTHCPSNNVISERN
ΔPDZ HRH3, sequence (Q9Y5N1 1-449 isoform Q9Y5N1-2): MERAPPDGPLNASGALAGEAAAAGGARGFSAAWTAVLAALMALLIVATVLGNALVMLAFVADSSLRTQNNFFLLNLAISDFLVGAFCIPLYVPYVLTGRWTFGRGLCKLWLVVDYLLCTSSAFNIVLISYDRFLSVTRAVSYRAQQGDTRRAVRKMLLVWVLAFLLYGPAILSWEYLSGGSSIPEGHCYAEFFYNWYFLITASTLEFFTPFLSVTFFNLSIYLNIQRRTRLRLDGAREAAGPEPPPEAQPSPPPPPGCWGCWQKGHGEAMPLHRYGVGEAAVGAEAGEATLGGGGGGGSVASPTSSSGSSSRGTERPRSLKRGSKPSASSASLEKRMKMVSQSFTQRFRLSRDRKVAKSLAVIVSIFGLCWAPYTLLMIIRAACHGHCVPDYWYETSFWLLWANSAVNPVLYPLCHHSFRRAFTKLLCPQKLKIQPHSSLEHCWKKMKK
WT C3AR1, sequence (Q16581 whole entry): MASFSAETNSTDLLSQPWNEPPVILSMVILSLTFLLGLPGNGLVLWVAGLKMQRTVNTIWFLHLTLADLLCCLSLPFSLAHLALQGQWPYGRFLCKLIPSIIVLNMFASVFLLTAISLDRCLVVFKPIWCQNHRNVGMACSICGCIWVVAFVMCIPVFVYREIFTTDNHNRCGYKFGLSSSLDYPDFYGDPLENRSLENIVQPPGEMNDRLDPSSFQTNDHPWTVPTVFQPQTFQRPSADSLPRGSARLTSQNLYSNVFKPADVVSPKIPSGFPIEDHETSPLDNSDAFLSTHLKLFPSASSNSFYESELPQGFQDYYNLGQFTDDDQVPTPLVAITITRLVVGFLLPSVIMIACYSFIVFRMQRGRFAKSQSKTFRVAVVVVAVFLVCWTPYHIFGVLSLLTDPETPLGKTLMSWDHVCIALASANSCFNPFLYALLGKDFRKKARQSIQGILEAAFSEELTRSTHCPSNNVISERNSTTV

On to `NC(=O)Cc1ccccc1` [Benzeneacetamide, benzeneacetamide], for which the “WT Max (DMR)” value on WT C3AR1 (WT C3AR1, maximal agonist DMR response) amounted to 36.90 ± 1.82. Further, the “WT TTP” value at WT C3AR1 (WT C3AR1, time to peak DMR) stood at 4.50 s. Further, the “ΔPDZ Max (DMR)” value on ΔPDZ C3AR1 (ΔPDZ C3AR1, maximal agonist DMR response) came out at 38.77 ± 2.59. At ΔPDZ C3AR1 (ΔPDZ C3AR1, time to peak DMR), the “ΔPDZ TTP” value was found to be 3.50 s.
`NCCc1c[nH]cn1` [Histamine, histamine dihydrochloride]: at ΔPDZ HRH3 (ΔPDZ HRH3, maximal agonist DMR response), the “ΔPDZ Max (DMR)” value was 60.19 ± 5.07. Moreover, at ΔPDZ HRH3 (ΔPDZ HRH3, time to peak DMR), the “ΔPDZ TTP” value was 6.30 s. Also, the “WT Max (DMR)” value on WT HRH3 (WT HRH3, maximal agonist DMR response) is 46.97 ± 3.71. At WT HRH3 (WT HRH3, time to peak DMR), the “WT TTP” value came to 7.30 s.
